{
  "source": "patent US20260007601A1",
  "about": "“IONIZABLE CATIONIC LIPID COMPOUND AND COMPOSITION FOR DELIVERING NUCLEIC ACID AND USE THEREOF” (BEIJING YOUCAREKECHUANG PHARMACEUTICAL TECHNOLOGY CO., LTD., priority 2023, published 2026)",
  "assay_type_in_all_cases": "cell-based",
  "key": {"[1]": {"system": "293T cells", "experiment": "Cell transfection experiment of LNP formulation of eGFP-mRNA (optimization of preparation conditions)", "details": "0.5% to 15% tested", "protocol": "The cationic lipid compound YK-202 synthesized in Example 1, DSPC (AVT (Shanghai) Pharmaceutical Technology Co., Ltd.), cholesterol (AVT (Shanghai) Pharmaceutical Technology Co., Ltd.) and DMG-PEG2000 were dissolved in ethanol at a molar ratio of 49:10:39.5:1.5 to prepare an ethanol lipid solution. The ethanol lipid solution was quickly added to a citrate buffer (pH=4 to 5) by ethanol injection method and vortexed for 30 seconds for use. eGFP-mRNA was diluted in a citrate buffer (pH=4 to 5) to obtain an mRNA aqueous solution. […]\nPlating: The cells in the culture dish were digested, counted, plated in a 96-well plate at 10,000 cells per well, or in a 12-well plate at 150,000 cells per well, and cultured overnight until the cells adhered to the wall.\nCell transfection experiment: The LNP formulation containing 1.5 μg of eGFP-mRNA prepared in Example 2 (the cationic lipid in the carrier was YK-202) and Lipofectamin 3000 formulation of eGFP-mRNA were added to the cell culture medium in a 12-well plate, and the cells were cultured for 24 hours. The transfection efficiency of different samples was investigated by fluorescence microscopy based on the fluorescence intensity."}, "[2]": {"system": "293T cells", "experiment": "Cell survival rate assay (CCK-8)", "summary_of_the_method": "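293T cells seeded at 10,000 per well and grown overnight, then exposed for 24 h to LNPs (cationic/neutral/structured/PEG lipids 49:10:39.5:1.5) carrying 1.5 μg Fluc-mRNA, or Lipofectamine 3000. Viability read by CCK-8, 1 h incubation, absorbance at 450 nm.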"}, "[3]": {"system": "293T cells", "experiment": "Fluorescence detection of Fluc-mRNA (cell transfection efficiency of LNP formulations)", "summary_of_the_method": "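293T cells at 10,000 per well, adhered overnight, then given LNPs carrying 0.3 μg Fluc-mRNA (cationic:neutral:structured:polymer-conjugated lipid 49:10:39.5:1.5 molar). After 24 h, luciferase signal read with luciferase kit reagents on an IVIS imaging system as transfection efficiency.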"}},
  "note": "“And” between values parts separate entries of the source, which are not always exact repeats. Identical values can stand only once.",
  "data": [
    {"smiles": "CCCCCCCCCCCOC(=O)CCCCCN(CCCCCCCC(=O)OCC(CCCCCCCC)CCCCCCCC)CCN(C)CCO", "note": "[YK-202]", "values": [
      {"measurement": "molar ratio of polymer-conjugated lipid DMG-PEG2000 to carrier with the highest transfection efficiency", "setting": "[1]", "result": 1.5, "unit": "%"},
      {"measurement": "Cell survival rate", "setting": "[2]; LNP containing 1.5 μg Fluc-mRNA, 24 hours, CCK-8", "result": 76.81, "unit": "%"},
      {"measurement": "cell survival rate higher (cytotoxicity reduced) compared with YK-221", "setting": "[2]; difference of rates", "result": "55% and 55.86%"},
      {"measurement": "cell survival rate higher (toxicity lower) than that of YK-204", "setting": "[2]; difference of rates", "result": 34.24, "unit": "%"},
      {"measurement": "cell survival rate higher (toxicity lower) than that of YK-225", "setting": "[2]; difference of rates", "result": 33.40, "unit": "%"},
      {"measurement": "cell survival rate higher than that of ALC-0315", "setting": "[2]; difference of rates", "result": 26.85, "unit": "%"},
      {"measurement": "cell survival rate higher than that of HHMA", "setting": "[2]; difference of rates", "result": 11.25, "unit": "%"},
      {"measurement": "cell survival rate higher than that of Lipofectamine 3000", "setting": "[2]; difference of rates", "result": 53.76, "unit": "%"},
      {"measurement": "cell survival rate higher than that of SM-102", "setting": "[2]; difference of rates", "result": 8.26, "unit": "%"},
      {"measurement": "cell survival rate higher than that of YK-203", "setting": "[2]; difference of rates", "result": 41.25, "unit": "%"},
      {"measurement": "cell survival rate higher than that of YK-205", "setting": "[2]; difference of rates", "result": 17.89, "unit": "%"},
      {"measurement": "cell survival rate higher than that of YK-208", "setting": "[2]; difference of rates", "result": 30.13, "unit": "%"},
      {"measurement": "cell survival rate higher than that of YK-210", "setting": "[2]; difference of rates", "result": 38.43, "unit": "%"},
      {"measurement": "cell survival rate higher than that of YK-211", "setting": "[2]; difference of rates", "result": 24.51, "unit": "%"},
      {"measurement": "cell survival rate higher than that of YK-212", "setting": "[2]; difference of rates", "result": 41.55, "unit": "%"},
      {"measurement": "cell survival rate higher than that of YK-213", "setting": "[2]; difference of rates", "result": 35.37, "unit": "%"},
      {"measurement": "cell survival rate higher than that of YK-214", "setting": "[2]; difference of rates", "result": "51.23% and 50%"},
      {"measurement": "cell survival rate higher than that of YK-215", "setting": "[2]; difference of rates", "result": 32.22, "unit": "%"},
      {"measurement": "cell survival rate higher than that of YK-216", "setting": "[2]; difference of rates", "result": 31.01, "unit": "%"},
      {"measurement": "cell survival rate higher than that of YK-217", "setting": "[2]; difference of rates", "result": 34.54, "unit": "%"},
      {"measurement": "cell survival rate higher than that of YK-219", "setting": "[2]; difference of rates", "result": 18.20, "unit": "%"},
      {"measurement": "cell survival rate higher than that of YK-220", "setting": "[2]; difference of rates", "result": 17.82, "unit": "%"},
      {"measurement": "cell survival rate higher than that of YK-222", "setting": "[2]; difference of rates", "result": 43.06, "unit": "%"},
      {"measurement": "cell survival rate higher than that of YK-223", "setting": "[2]; difference of rates", "result": 40.17, "unit": "%"},
      {"measurement": "cell survival rate higher than that of YK-224", "setting": "[2]; difference of rates", "result": 53.34, "unit": "%"},
      {"measurement": "cell survival rate higher than that of YK-226", "setting": "[2]; difference of rates", "result": 48.91, "unit": "%"},
      {"measurement": "cell survival rate higher than that of compound 21", "setting": "[2]; difference of rates", "result": 7.79, "unit": "%"},
      {"measurement": "cell survival rate higher than that of compound 23", "setting": "[2]; difference of rates", "result": 6.71, "unit": "%"},
      {"measurement": "RLU / cell transfection efficiency, times that of ALC-0315", "setting": "[3]; Fluc-mRNA LNP", "result": 13.95, "unit": "times"},
      {"measurement": "RLU / cell transfection efficiency, times that of HHMA", "setting": "[3]; Fluc-mRNA LNP", "result": 14.27, "unit": "times"},
      {"measurement": "RLU / cell transfection efficiency, times that of Lipofectamine 3000", "setting": "[3]; Fluc-mRNA LNP", "result": 24.94, "unit": "times"},
      {"measurement": "RLU / cell transfection efficiency, times that of YK-009", "setting": "[3]; Fluc-mRNA LNP", "result": 5.84, "unit": "times"},
      {"measurement": "RLU / cell transfection efficiency, times that of compound 21", "setting": "[3]; Fluc-mRNA LNP", "result": "21.08 times and 21 times"},
      {"measurement": "RLU / cell transfection efficiency, times that of compound 23", "setting": "[3]; Fluc-mRNA LNP", "result": "22.49 times and 22 times"},
      {"measurement": "cell transfection efficiency, times that of YK-223", "setting": "[3]; Fluc-mRNA LNP", "result": 399.37, "unit": "times"},
      {"measurement": "cell transfection efficiency, times that of YK-224", "setting": "[3]; Fluc-mRNA LNP", "result": 340.35, "unit": "times"},
      {"measurement": "cell transfection efficiency, times that of YK-226", "setting": "[3]; Fluc-mRNA LNP", "result": 519.55, "unit": "times"},
      {"measurement": "fluorescence absorption value / cell transfection efficiency, times that of YK-203", "setting": "[3]; Fluc-mRNA LNP", "result": 7.74, "unit": "times"},
      {"measurement": "fluorescence absorption value / cell transfection efficiency, times that of YK-204", "setting": "[3]; Fluc-mRNA LNP", "result": "82 times and 82.30 times"},
      {"measurement": "fluorescence absorption value / cell transfection efficiency, times that of YK-205", "setting": "[3]; Fluc-mRNA LNP", "result": 29.11, "unit": "times"},
      {"measurement": "fluorescence absorption value / cell transfection efficiency, times that of YK-208", "setting": "[3]; Fluc-mRNA LNP", "result": 7.76, "unit": "times"},
      {"measurement": "fluorescence absorption value / cell transfection efficiency, times that of YK-210", "setting": "[3]; Fluc-mRNA LNP", "result": 6.47, "unit": "times"},
      {"measurement": "fluorescence absorption value / cell transfection efficiency, times that of YK-211", "setting": "[3]; Fluc-mRNA LNP", "result": 21.87, "unit": "times"},
      {"measurement": "fluorescence absorption value / cell transfection efficiency, times that of YK-212", "setting": "[3]; Fluc-mRNA LNP", "result": 7.66, "unit": "times"},
      {"measurement": "fluorescence absorption value / cell transfection efficiency, times that of YK-213", "setting": "[3]; Fluc-mRNA LNP", "result": 21.95, "unit": "times"},
      {"measurement": "fluorescence absorption value / cell transfection efficiency, times that of YK-214", "setting": "[3]; Fluc-mRNA LNP", "result": 6.54, "unit": "times"},
      {"measurement": "fluorescence absorption value / cell transfection efficiency, times that of YK-215", "setting": "[3]; Fluc-mRNA LNP", "result": 30.53, "unit": "times"},
      {"measurement": "fluorescence absorption value / cell transfection efficiency, times that of YK-216", "setting": "[3]; Fluc-mRNA LNP", "result": 13.14, "unit": "times"},
      {"measurement": "fluorescence absorption value / cell transfection efficiency, times that of YK-217", "setting": "[3]; Fluc-mRNA LNP", "result": 416.94, "unit": "times"},
      {"measurement": "fluorescence absorption value / cell transfection efficiency, times that of YK-218", "setting": "[3]; Fluc-mRNA LNP", "result": 49.35, "unit": "times"},
      {"measurement": "fluorescence absorption value / cell transfection efficiency, times that of YK-219", "setting": "[3]; Fluc-mRNA LNP", "result": 19.89, "unit": "times"},
      {"measurement": "fluorescence absorption value / cell transfection efficiency, times that of YK-220", "setting": "[3]; Fluc-mRNA LNP", "result": 138.44, "unit": "times"},
      {"measurement": "fluorescence absorption value, times that of YK-222", "setting": "[3]; Fluc-mRNA LNP", "result": 49.41, "unit": "times"},
      {"measurement": "Relative light unit (RLU)", "setting": "[3]; LNP containing 0.3 μg Fluc-mRNA, 24 hours", "result": 29957419, "unit": "RLU"},
      {"measurement": "Multiples of values that equivalent to YK-201", "setting": "[3]; RLU of YK-201 / RLU of the named lipid", "result": 0.95},
      {"measurement": "Multiples of values that equivalent to YK-202", "setting": "[3]; RLU of YK-202 / RLU of the named lipid", "result": 1.00}
    ]}
  ]
}
